≈ marks a conversion by molar mass, not a printed value.

Test [1] deals with Escherichia coli β7334 Δdeo tdk cdd::Tn10 pSUTrc (dck allele: none). It counts as cell-based. Conditions: strain β7334, dck allele none; 18 h 37° C., MS medium + IPTG. How it is done: (§1) The culture was then diluted 100 times in the same medium supplemented with IPTG and distributed on 96-well microplates in a final volume of 100 μl in a series of dilutions from to 2 to 2 nucleotide analogues. Each analogue was tested twice. After incubation for 18 hours at 37° C. with stirring, the MIC was determined as corresponding to the lowest analogue concentration for which no turbidity was detectable.
(§2) The toxicity of nucleoside analogues, deviating either by the sugar or by the base, was evaluated in strains of genotype Δdeo tdk cdd expressing on a plasmid the different dckH alleles, wild-type allele, D133E, R104Q and double mutant.
(§3) The minimum inhibitory concentrations, expressed in microM, were determined as indicated in the section Materials and Methods.

The test system of test [2] is Escherichia coli β7338 Δdeo tdk cdd::Tn10 pSUDCK4 (dck:D133E-R104Q). It is filed as cell-based. The conditions noted are these: strain β7338, dck allele D133E R104Q; 18 h 37° C., MS medium + IPTG. The protocol:
as §1, §2, §3

Test [3] concerns Escherichia coli β7339 Δdeo tdk cdd::Tn10 (dckH none, amkG wt). The experiment in a line: microbe, parasite or virus in culture. The conditions noted are these: strain β7339, dckH none, amkG wt. It is filed as cell-based. How it is done: as §1
(§4) We jointly expressed, within the genetic context Δdeo tdk cdd each of the four alleles of dckH with each of the two wt and T39A alleles of amkG, and tested the toxicity of the different nucleoside analogues already tested previously (Table 4 below).
as §3

For test [4], the system named is Escherichia coli β7340 Δdeo tdk cdd::Tn10 (dckH wt, amkG wt). The experiment in a line: microbe, parasite or virus in culture. Conditions: strain β7340, dckH wt, amkG wt. It counts as cell-based. The protocol: as §1, §4, §3
Test [5] has as its system Escherichia coli β7341 Δdeo tdk cdd::Tn10 (dckH D133E, amkG wt). The experiment in a line: microbe, parasite or virus in culture. Conditions: strain β7341, dckH D133E, amkG wt. It is filed as cell-based. The protocol: as §1, §4, §3
Test [6] has as its system Escherichia coli β7342 Δdeo tdk cdd::Tn10 (dckH R104Q, amkG wt). The experiment in a line: microbe, parasite or virus in culture. It counts as cell-based. Conditions: strain β7342, dckH R104Q, amkG wt. How it is done:
as §1, §4, §3

The subject of test [7] is Escherichia coli β7343 Δdeo tdk cdd::Tn10 (dckH D133E R104Q, amkG wt). The experiment in a line: microbe, parasite or virus in culture. It counts as cell-based. The conditions noted are these: strain β7343, dckH D133E R104Q, amkG wt. The protocol: as §1, §4, §3
Test [8] concerns Escherichia coli β7344 Δdeo tdk cdd::Tn10 (dckH none, amkG T39A). Description: microbe, parasite or virus in culture. It counts as cell-based. The conditions noted are these: strain β7344, dckH none, amkG T39A. The protocol: as §1, §4, §3
Test [9] concerns Escherichia coli β7345 Δdeo tdk cdd::Tn10 (dckH wt, amkG T39A). The experiment in a line: microbe, parasite or virus in culture. It is filed as cell-based. The conditions noted are these: strain β7345, dckH wt, amkG T39A. How it is done: as §1, §4, §3
For test [10], the system named is Escherichia coli β7346 Δdeo tdk cdd::Tn10 (dckH D133E, amkG T39A). Description: microbe, parasite or virus in culture. Conditions: strain β7346, dckH D133E, amkG T39A. It counts as cell-based. The protocol: as §1, §4, §3
Test [11] deals with Escherichia coli β7347 Δdeo tdk cdd::Tn10 (dckH R104Q, amkG T39A). The experiment in a line: microbe, parasite or virus in culture. It is filed as cell-based. The conditions noted are these: strain β7347, dckH R104Q, amkG T39A. The protocol: as §1, §4, §3
The subject of test [12] is Escherichia coli β7348 Δdeo tdk cdd::Tn10 (dckH D133E R104Q, amkG T39A). The experiment in a line: microbe, parasite or virus in culture. The conditions noted are these: strain β7348, dckH D133E R104Q, amkG T39A. It counts as cell-based. How it is done: as §1, §4, §3
Test [13] concerns bacteria of genotype Δdeo tdk p::dckH+ (β7134 cells). Description: Selection of the DCK mutants in vivo (mutagenesis of dck gene by promutagenic nucleosides). It is filed as cell-based, Escherichia coli. How it is done: Selection of the DCK mutants in vivo: a 12-hour culture of the β7134 cells in MS medium supplemented with 50 mg/l of carbenicillin was diluted 100 times in the same medium and cultured with aeration until turbidity of 0.100 (600 nm) was reached. The culture was then diluted 25 times in the same medium with or without IPTG and supplemented with variable concentrations (5 to 30 μM) of the promutagenic nucleoside analogues disoG and disoA then cultured with aeration for 18 hours. The cells were rinsed then plated on MH dishes supplemented with trimethoprim, thymidine and IPTG. Colonies appeared after incubation for 36 hours at 37° C. No colony was obtained in the absence of nucleoside analogue.
We took advantage of the conditional mutating property of DCK in the presence of promutagenic nucleoside analogues in order to subject its own dck gene to an episode of mutagenesis in vivo. Thus, bacteria of genotype Δdeo tdk p::dckH+ were exposed either to 2′-deoxy-iso-adenosine (disoA) or to 2′ deoxy-iso-guanosine (disoG), then incubated on solid rich medium in the presence of trimethoprim and thymidine. Colonies appeared following the administration of the two compounds at a frequency of the order of 10^−8. No colony survived in the absence of promutagenic nucleoside.
These alleles are designated dckH*. A plasmid combining the two mutations in the same allele, dckH**, was constructed and introduced into the strain β7117 of genotype Δdeo tdk. This allowed the complementation of the tdk mutation, thus also expressing a thymidine kinase activity. The different alleles selected are itemized in Table 2 below.

The test system of test [14] is Escherichia coli β7336 Δdeo tdk cdd::Tn10 pSUDCK2 (dck:D133E). It counts as cell-based. The conditions noted are these: strain β7336, dck allele D133E; 18 h 37° C., MS medium + IPTG. The protocol:
(§5) The culture was then diluted 100 times in the same medium supplemented with IPTG and distributed on 96-well microplates in a final volume of 100 μl in a series of dilutions from to 2 to 2 nucleotide analogues. Each analogue was tested twice.
as §2, §3

Test [15] has as its system Escherichia coli β7337 Δdeo tdk cdd::Tn10 pSUDCK3 (dck:R104Q). It counts as cell-based. Conditions: strain β7337, dck allele R104Q; 18 h 37° C., MS medium + IPTG. The protocol:
as §5, §2, §3

Turning to `Nc1nc(O)nc2c1ncn2[C@H]1C[C@H](O)[C@@H](CO)O1` [disoG, 2-hydroxy-6-amino-9-(2′-deoxy-β-D-ribofuranosyl)purine], the “minimum inhibitory concentration (MIC)” value was “> (no toxicity could be detected at the highest analogue concentration, 1.28 mM)” in [1]; “> (no toxicity could be detected at the highest analogue concentration, 1.28 mM)” in test [2]; “> (no toxicity could be detected at the highest analogue concentration, 1280 microM)” in test [3]; “> (no toxicity could be detected at the highest analogue concentration, 1280 microM)” in test [4]; “> (no toxicity could be detected at the highest analogue concentration, 1280 microM)” in test [5]; “> (no toxicity could be detected at the highest analogue concentration, 1280 microM)” in test [6]. The “minimum inhibitory concentration (MIC)” value in [7] was “> (no toxicity could be detected at the highest analogue concentration, 1280 microM)”; in test [8] it was “> (no toxicity could be detected at the highest analogue concentration, 1280 microM)”; in [9] it was “> (no toxicity could be detected at the highest analogue concentration, 1280 microM)”; in [10], “> (no toxicity could be detected at the highest analogue concentration, 1280 microM)”; in [11], “> (no toxicity could be detected at the highest analogue concentration, 1280 microM)”; in test [12] it was “> (no toxicity could be detected at the highest analogue concentration, 1280 microM)”. The “frequency of colonies on solid rich medium with trimethoprim and thymidine after exposure” value in test [13] (no colony in the absence of promutagenic nucleoside) was ~10^−8. Moreover, in test [13] (sequenced mutant plasmids obtained independently), the “Frequency of mutation detected C → A, codon 133 GAC, Asp → Glu” value is 4/4.

For `OC[C@H]1O[C@@H](n2c(O)nc3c(O)ncnc32)C[C@@H]1O` [8ho′dI, 8-hydroxy-hypoxanthine deoxyribonucleoside], the “minimum inhibitory concentration (MIC)” value in test [1] is “> (no toxicity could be detected at the highest analogue concentration, 1.28 mM)”; in test [2], “> (no toxicity could be detected at the highest analogue concentration, 1.28 mM)”; in test [14], 1280 µM; in test [3], “> (no toxicity could be detected at the highest analogue concentration, 1280 microM)”; in test [4], “> (no toxicity could be detected at the highest analogue concentration, 1280 microM)”; in [5], 1280 µM (≈ 343 µg/mL). Moreover, the “minimum inhibitory concentration (MIC)” value is “> (no toxicity could be detected at the highest analogue concentration, 1280 microM)” in test [6]; “> (no toxicity could be detected at the highest analogue concentration, 1280 microM)” in [7]; “> (no toxicity could be detected at the highest analogue concentration, 1280 microM)” in [8]; “> (no toxicity could be detected at the highest analogue concentration, 1280 microM)” in [9]; 1280 µM (≈ 343 µg/mL) in test [10]; “> (no toxicity could be detected at the highest analogue concentration, 1280 microM)” in test [11]. In [12], the “minimum inhibitory concentration (MIC)” value was “> (no toxicity could be detected at the highest analogue concentration, 1280 microM)”.

Consider `NNc1ccn([C@H]2C[C@H](O)[C@@H](CO)O2)c(=O)n1` [amino-dC, N4-amino-2′-deoxycitidine], for which the “minimum inhibitory concentration (MIC)” value in test [1] is “> (no toxicity could be detected at the highest analogue concentration, 1.28 mM)”; in [2] it was 20 µM; in test [14], 20 µM; in test [15], 2.5 µM; in [3], “> (no toxicity could be detected at the highest analogue concentration, 1280 microM)”; in test [4], 80 µM (≈ 19.4 µg/mL). The “minimum inhibitory concentration (MIC)” value in [5] was “> (no toxicity could be detected at the highest analogue concentration, 1280 microM)”; in [6], “≦1.25 microM”; in [7], 80 µM (≈ 19.4 µg/mL); in test [8], “> (no toxicity could be detected at the highest analogue concentration, 1280 microM)”; in test [9], “> (no toxicity could be detected at the highest analogue concentration, 1280 microM)”; in test [10], 640 µM (≈ 155 µg/mL). In addition, the “minimum inhibitory concentration (MIC)” value in test [11] was found to be 5 µM (≈ 1.21 µg/mL); in [12], 320 µM (≈ 77.5 µg/mL).

Values taken from patent publication US7547513B2, “Mutants of deoxycytidine kinase having extended enzymatic activity” (priority 2001, dated 2009).
